The values that follow come from publication PMC9169614, “Decrypting a cryptic allosteric pocket in H. pylori glutamate racemase” (Communications Chemistry, 2021).

Data set [1] has as its system H. pylori GR. Also on record: method as in earlier work. The settings on record: ref 8 (Lundqvist et al.); cited from earlier work.
On the set-up of data set [2]: method as in PMID 31876113. The settings on record: carboxylic acid form (α-carboxylate protonated by Cys181); cited from earlier work.
In data set [3] the target is T1, H. pylori glutamate racemase (GR) (Helicobacter pylori, UniProt Q9ZLT0).
T1 construct: made in house; host or cells: E. coli BL21 (DE3) pLysS, co-expressed with GroEL/ES
T1 sequence (Q9ZLT0 whole entry): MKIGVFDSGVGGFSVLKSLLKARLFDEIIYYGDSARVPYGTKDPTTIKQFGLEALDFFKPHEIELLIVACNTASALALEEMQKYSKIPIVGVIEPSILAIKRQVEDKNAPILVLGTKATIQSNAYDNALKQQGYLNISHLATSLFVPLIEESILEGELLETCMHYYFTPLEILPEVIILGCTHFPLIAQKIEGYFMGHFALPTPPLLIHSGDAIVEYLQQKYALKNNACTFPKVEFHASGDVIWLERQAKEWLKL
As to the kind of experiment: Surface plasmon resonance (SPR) binding to immobilized GR. The settings on record: 1:1 Langmuir binding model, absence of substrate D-Glu, 25 °C, 500-7.81 µM dilution series.
Description: We first evaluated the binding affinity of these compounds to H. pylori GR by Surface Plasmon Resonance (SPR). A combination of amine coupling and HisCapture was used to immobilize the protein on the surface of the SPR biosensor. Compounds were injected onto the sensor in increasing concentrations using a dilution series ranging from 500 µM to 7.81 µM (7 concentrations).
Experiments were performed using a SensiQ Pioneer SPR. The biosensor chip was first equilibrated with SPR running buffer (50 mM Tris-HCl, 100 mM NaCl, TCEP, 1% v/v TWEEN, pH 8.0), then the surface of the biosensor chip was seasoned by injecting 200 μL 50 mM NaOH at 40 μL/min, 200 μL 0.1% v/v SDS at 40 μL/min, and 200 μL 10 mM HCl at 40 μL/min in the test and reference biosensor chip flow channels. This process of seasoning was repeated twice. All buffers and solutions were filter sterilized with 0.22-μm buffer filters before using on the SPR instrument. After seasoning, the lines were primed three times with SPR buffer. […]
H. pylori GR was immobilized to the biosensor using a HisCapture couple method detailed above. […] All sensograms were analyzed using the program Qdat (2.6.3.0) and it fitted to a model of simple binding of 1:1 Langmuir binding model for all virtual hits. […]

Data set [4] has as its target T1, H. pylori glutamate racemase (GR). Kind of data set: Coupled-enzyme assay (L-glutamate dehydrogenase/diaphorase) of D- to L-glutamate racemization. It is filed as biochemical. As to conditions: 1.25 mM D-Glu, 2 µM GR, 50 mM TRIS pH 8, 5% DMSO; mean ± SE n = 3 for NP-020560 and Compound A, other hits single repeat.
Description: The D- to L-glutamate racemization activities of H. pylori GR was assayed through a previously established coupled-enzyme method, utilizing L-glutamate dehydrogenase and diaphorase[40]. […] The assay consists of 1.25 mM D-Glu, 2.51 mM ADP, 5 mM NAD, 0.506 mM INT, 5 Units of L-GDH, 0.4 units of diaphorase and 2 µM GR in 50 mM TRIS, pH = 8. Compound stocks solutions of varying concentrations (100 µM–50 mM) were made in DMSO and introduced in the assay vials. The final DMSO concentration after addition of compounds in the assay was 5% v/v. […] Absorption for the reduced iodonitrotetrazolium was collected by measuring absorbance at 500 nm at 1 min interval for 60 min on Cary 300 UV-VIS Spectrophotometer from Varian (Palo Alto, CA). Absorbance for each compound concentration at every time point were normalized to absorbance for blank, followed by calculating slopes for each concentration. The calculated slopes with the respective log (inhibitor concertation) were fitted to log(inhibitor) vs response (three parameters) model within ‘Nonlinear Regression-Dose Response Inhibition’ in GraphPad Prism version 8.4.3. The program provides output as IC50 and LogIC50 along with respective standard errors, and for ease of expression, we report inhibition data as IC50 (mean ± SE).

As for `CC(C)Cn1c(=O)n(C)c(=O)c2c(-c3ccncc3)n(Cc3cccc4ccccc34)nc21` [Compound A], the half-maximal inhibitory concentration (IC50) in data set [1] was 5 µM.
With `N[C@H](CCC(=O)O)C(=O)O` [D-Glu, D-glutamate], the “pKa of α-carbon of D-Glu substrate” value in data set [2] is 14.4.
`Cc1cc2c(c(-c3c(O)c(C)cc4c3C(=O)c3c(O)cc(O)cc3C4=O)c1O)C(=O)c1c(O)cc(O)cc1C2=O` [NP-020560]: the Kd in data set [3] came to 54.7 ± 0.3 µM. In addition, in data set [4], the IC50 stood at 6.6 ± 3.1 µM.
